Reference: patent US12268689B2, “Eutectic form A of Elagolix and pyrimethamine, preparation method therefor and use thereof” (Shenzhen Rentai Pharmatech Ltd., priority 2019, dated 2025)
“Also recorded” adds a separate entry of the source.

Tests used:
Assay type in all cases: physicochemical
[1] = High temperature stability test (60° C., 30 days; HPLC purity and XRPD)
Description: (§1) High temperature stability: samples of a raw drug of Elagolix sodium and an eutectic form A formed by Elagolix and pyrimethamine (prepared in Comparative example 1 and Example 1, respectively) were taken and separately placed at 60° C. for 30 days, sampling was conducted at fixed time points on day 5, day 10 and day 30, respectively to determine the XRPD pattern of the eutectic form A, and the content of the raw drug of Elagolix sodium and the eutectic form A, and the determined XRPD pattern of the eutectic form A, and the determined content of the raw drug of Elagolix sodium and the eutectic form A were compared with those on day 0.
(§2) The specific stability test method can refer to the method in Appendix XIC of Part II of Chinese Pharmacopoeia (2015 Edition); and the purity was detected by an HPLC method, and can be determined by an external standard method with reference to the method in Appendix VD of Chinese Pharmacopoeia (2015 Edition) by using the sample on day 0 as a control.
(§3) Operating Conditions for HPLC
(§4) • Instrument: high performance liquid chromatograph (model: Agilent Technologies 1260) • Chromatographic column: shiseido CAPCELL PAK C18 column (5 μm, 250 mm×4.6 mm) Mobile Phase Composition and Gradient Elution Procedure:
(§5) • Detection wavelength: 254 nm • Flow rate: 1 mL/min • Injection volume: 10 μL • Column temperature: 30° C.

[2] = Light stability test (25° C., 4500 Lux, 30 days; HPLC purity and XRPD); settings: light conditions
Description: Light stability: samples of a raw drug of Elagolix sodium and an eutectic form A formed by Elagolix and pyrimethamine (prepared in Comparative example 1 and Example 1, respectively) were taken and separately placed at 25° C. under light conditions of 4500 Lux for 30 days, sampling was conducted at fixed time points on day 5, day 10 and day 30, respectively to determine the XRPD pattern of the eutectic form A, and the content of Elagolix in the raw drug of Elagolix sodium and the eutectic form A, and the determined XRPD pattern of the eutectic form A, and the determined content of Elagolix in the raw drug of Elagolix sodium and the eutectic form A were compared with those on day 0.
as §2, §3
• Instrument: high performance liquid chromatograph (model: Agilent Technologies 1260) • Chromatographic column: shiseido CAPCELL PAK C18 column (5 μm, 250 mm×4.6 mm) Mobile Phase Composition and Gradient Elution Procedure: […]

[3] = High humidity stability test (25° C., 92.5% RH, 30 days; HPLC purity and XRPD)
Description: as §1, with “humidity” for “temperature”, “25°” for “60°”, “C. at 92.5% RH” for “C.”
as §2, §3, §4, §5

COc1cccc(-c2c(C)n(Cc3c(F)cccc3C(F)(F)F)c(=O)n(C[C@H](NCCCC(=O)O)c3ccccc3)c2=O)c1F [Elagolix sodium]
not good; also recorded: unstable: High temperature stability (in words) [1] | Light stability (in words) [2] | High humidity stability (in words) [3]
